Where no end group is shown, it is not given here.
Test system: blood-brain barrier (BBB)
Assay type: in vivo, male CD-1 mice

CNC[C@H](O)c1ccc(O)c(O)c1 [Epinephrine]
effect on I-Ghr uptake across the BBB (epinephrine 40 nmol/mouse in the iv injection, 8 week old mice): no effect

I-Ghr: Human ghrelin radioactively labeled with 131I by the chloramine-T method, purified by reverse-phase HPLC (GSSFLSPEHQRVQQRKESKKPPAKLQPR; ends and bridges not checked; also: 131I radiolabel, site not given here; UniProt Q9UBU3 24-51, looked up)
effect of 48 h fasting on Ki of I-Ghr vs fed animals (mouse, in vivo, iv): arithmetic increase

triolein
enhancement of I-Ghr transport across the BBB (triolein 7.2 mg/mouse iv with I-Ghr, 8 week old mice): over 70%
